Measured values as given in publication PMC10096344 (Molecules, 2023).

How the values were obtained:
[1] = tested on: P. aeruginosa (ATCC27853); assay: Anti-bacterial activity, inhibition zone diameter on agar; format: cell-based, Pseudomonas aeruginosa; settings: LP4C 5, 10, 50, 100, 200 μg/mL
Method: P. aeruginosa (ATCC27853) was cultured in 3 mL LB culture medium, shaken at 220 rpm for 12 h at 37 °C and diluted to 1 × 10^6 CFU/mL. The culture disk was coated with 1% agar, and 100 μL bacterial suspension was added to the agar in the disk evenly. […] LP4C or reference antibiotics were then added in each hole. The disk was cultured for 12–16 h at 37 °C; the result was then observed and the inhibition zone diameter was measured.

[2] = tested on: P. aeruginosa (ATCC27853) biofilm; assay: Bacterial biofilm formation (FITC staining, crystal violet staining); format: cell-based, Pseudomonas aeruginosa
Method: The bacterial biofilm growth and measurement was performed according to our previously reported method. Briefly, P. aeruginosa (ATCC27853) was cultured in the tube with nutrient broth containing 2% (w/v) glucose, shaken at 220 rpm for 12 h at 37 °C. The suspension was diluted to 1 × 10^6 CFU/mL and added to 96-well plates, the bacteria was cultured for 24 h at 37 °C for biofilm growth and the planktonic bacterial of each well was removed by PBS rinsing three times. To observe the biofilm formation, the fluorescein isothiocyanate (FITC) was added into the plates and incubated for 2 h at 37 °C; the labeled biofilm was then washed by PBS and visualized under the fluorescence microscopy (Olympus CKX53, Tokyo, Japan). The measurement of biofilm was performed according to the following procedure: the mature biofilm was fixed with 150 μL methanol and left to air dry, then stained with 150 μL of 1% (w/v) crystal violet solution for 15 min at room temperature. The plate was rinsed with PBS three times and 150 μL of glacial acetic acid was added to each well; the optical density was measured at 630 nm optical density using a microplate reader (Bio-Tek ELX800, Berten, USA).

[3] = tested on: P. aeruginosa (ATCC27853); assay: Transcriptome assay (RNA-seq); format: cell-based, Pseudomonas aeruginosa; settings: LP4C 10 μg/mL vs Vehicle Treatment Group
Method: The RNA sequencing was performed using Illumina HiSeq4000 according to the operation instructions (Illumina, CA, USA). Differential gene expression analysis of LP4C treatment and control groups was conducted; KEGG signaling pathway analysis was performed to map the connection of multiple genes.

[4] = tested on: pyr genes (pyrA, pyrB, pyrC, pyrD, pyrE and pyrF); assay: RT-PCR (qPCR) of pyr genes; format: cell-based, Pseudomonas aeruginosa; settings: LP4C 10 μg/mL vs control
Method: The total RNA was isolated from P. aeruginosa cultures, and qPCR amplification was performed according to the instrument of the quantitative PCR system (Stratagene Mx3005P, Agilent, USA); the thermal cycler was then initiated by denaturation procedure for 2 min at 93 °C followed by 40 cycles of 1 min at 93 °C and 2 min at 55 °C. The gene-specific PCR primers were listed in Supplementary Table S3. The relative expression of genes was analyzed by the 2^−ΔΔCt method with normalization to gyrB level.

[5] = tested on: CCC-HHM-2 (human embryonic myocardial tissue cell); assay: Cytotoxicity test, CCK-8; format: cell-based
Method: (§1) Optical density was calculated by the microplate reader (BioTek flx800, Berten, USA).

[6] = tested on: HUVEC (human umbilical vein endothelial cell); assay: Cytotoxicity test, CCK-8; format: cell-based
Method: as §1

[7] = tested on: S. typhimurium strains TA97, TA98, TA100 and TA102; assay: Bacterial reverse mutation assay (Ames assay), all strains; format: cell-based, Salmonell typhimurium
Method: (§2) A sample of 2-aminofluorene (10 μg/plate) was used for TA97, TA98, TA100 +S9 test strains, while 1,8-dihydroxyanthraquinone (60 μg/plate) was used for the TA102 +S9 test strain. The histidine was added with the same amount. The plates were incubated for 48 h at 37 °C; the number of colonies was then counted per plate.

S. typhimurium TA100 = assay: Bacterial reverse mutation assay (Ames assay); format: cell-based, Salmonell typhimurium; settings: n = 3
Method: as §2

S. typhimurium TA102 = assay: Bacterial reverse mutation assay (Ames assay); format: cell-based, Salmonell typhimurium; settings: n = 3
Method: as §2

S. typhimurium TA97 = assay: Bacterial reverse mutation assay (Ames assay); format: cell-based, Salmonell typhimurium; settings: n = 3
Method: as §2

S. typhimurium TA98 = assay: Bacterial reverse mutation assay (Ames assay); format: cell-based, Salmonell typhimurium; settings: n = 3
Method: as §2

[8] = Pharmacokinetics measurement; format: in vivo; settings: SD rats; for plasma half-life: single dose
[9] = 200 μg/mL vs anti-biofilm concentration of LP4C
[10] = LP4C under 200 μg/mL, 24 h, vs vehicle

Structure (SMILES): N#CC1=C(N)Oc2c(c(=O)oc3ccccc23)C1c1cc(C(F)(F)F)cc(C(F)(F)F)c1 (stereo not drawn) [LP4C]
- growth inhibition / bactericidal activity (inhibition zone) [1]: no bactericidal activity
- biofilm formation, crystal violet staining ([2]; LP4C 5 μg/mL to 200 μg/mL): could inhibit the biofilm formation in a dose-dependent manner
- formation of biofilm, FITC staining ([2]; LP4C 5-200 μg/mL vs Vehicle Treatment Group): suppressed the formation of biofilm in a dose-dependent manner
- concentration at which biofilm formation was still inhibited ([2]; inhibited even at this concentration): 5 µg/mL
- most enriched pathway of DEGs (transcriptome) [3]: the DEGs number of pyrimidine metabolism was the most enriched
- expression of pyr genes [4]: could inhibit the expression of pyr genes significantly
- non-toxic concentration relative to anti-biofilm concentration [5, 9]: at least 40 times
- cell viability (CCK-8) [5, 10]: the cell viability was not affected
- non-toxic concentration relative to anti-biofilm concentration [6, 9]: at least 40 times
- cell viability (CCK-8) [6, 10]: the cell viability was not affected
- number of bacterial revertant colonies vs DMSO negative control ([7]; LP4C 50 μg/plate to 5000 μg/plate): did not increase
- mutagenic potential ([7]; LP4C 50 to 5000 μg/plate, ±S9): no obvious mutagenic potential
- number of bacterial revertant colonies (S. typhimurium TA100; LP4C 50 μg/plate, TA100, +S9, mean ± SD): 130 ± 7.68
- number of bacterial revertant colonies (S. typhimurium TA100; LP4C 50 μg/plate, TA100, −S9, mean ± SD): 117 ± 5.96
- number of bacterial revertant colonies (S. typhimurium TA100; LP4C 200 μg/plate, TA100, +S9, mean ± SD): 133 ± 7.34
- number of bacterial revertant colonies (S. typhimurium TA100; LP4C 200 μg/plate, TA100, −S9, mean ± SD): 116 ± 6.42
- number of bacterial revertant colonies (S. typhimurium TA100; LP4C 1000 μg/plate, TA100, +S9, mean ± SD): 131 ± 6.75
- number of bacterial revertant colonies (S. typhimurium TA100; LP4C 1000 μg/plate, TA100, −S9, mean ± SD): 120 ± 8.33
- number of bacterial revertant colonies (S. typhimurium TA100; LP4C 2000 μg/plate, TA100, +S9, mean ± SD): 132 ± 6.95
- number of bacterial revertant colonies (S. typhimurium TA100; LP4C 2000 μg/plate, TA100, −S9, mean ± SD): 120 ± 5.71
- number of bacterial revertant colonies (S. typhimurium TA100; LP4C 5000 μg/plate, TA100, +S9, mean ± SD): 130 ± 5.69
- number of bacterial revertant colonies (S. typhimurium TA100; LP4C 5000 μg/plate, TA100, −S9, mean ± SD): 122 ± 7.67
- number of bacterial revertant colonies (S. typhimurium TA102; LP4C 50 μg/plate, TA102, +S9, mean ± SD): 276 ± 11.2
- number of bacterial revertant colonies (S. typhimurium TA102; LP4C 50 μg/plate, TA102, −S9, mean ± SD): 260 ± 10.3
- number of bacterial revertant colonies (S. typhimurium TA102; LP4C 200 μg/plate, TA102, +S9, mean ± SD): 281 ± 9.36
- number of bacterial revertant colonies (S. typhimurium TA102; LP4C 200 μg/plate, TA102, −S9, mean ± SD): 271 ± 5.68
- number of bacterial revertant colonies (S. typhimurium TA102; LP4C 1000 μg/plate, TA102, +S9, mean ± SD): 279 ± 10.6
- number of bacterial revertant colonies (S. typhimurium TA102; LP4C 1000 μg/plate, TA102, −S9, mean ± SD): 267 ± 8.35
- number of bacterial revertant colonies (S. typhimurium TA102; LP4C 2000 μg/plate, TA102, +S9, mean ± SD): 280 ± 11.3
- number of bacterial revertant colonies (S. typhimurium TA102; LP4C 2000 μg/plate, TA102, −S9, mean ± SD): 262 ± 8.44
- number of bacterial revertant colonies (S. typhimurium TA102; LP4C 5000 μg/plate, TA102, +S9, mean ± SD): 273 ± 12.6
- number of bacterial revertant colonies (S. typhimurium TA102; LP4C 5000 μg/plate, TA102, −S9, mean ± SD): 256 ± 9.21
- number of bacterial revertant colonies (S. typhimurium TA97; LP4C 50 μg/plate, TA97, +S9, mean ± SD): 142 ± 7.13
- number of bacterial revertant colonies (S. typhimurium TA97; LP4C 50 μg/plate, TA97, −S9, mean ± SD): 123 ± 5.92
- number of bacterial revertant colonies (S. typhimurium TA97; LP4C 200 μg/plate, TA97, +S9, mean ± SD): 140 ± 8.55
- number of bacterial revertant colonies (S. typhimurium TA97; LP4C 200 μg/plate, TA97, −S9, mean ± SD): 122 ± 7.42
- number of bacterial revertant colonies (S. typhimurium TA97; LP4C 1000 μg/plate, TA97, +S9, mean ± SD): 142 ± 5.96
- number of bacterial revertant colonies (S. typhimurium TA97; LP4C 1000 μg/plate, TA97, −S9, mean ± SD): 119 ± 8.52
- number of bacterial revertant colonies (S. typhimurium TA97; LP4C 2000 μg/plate, TA97, +S9, mean ± SD): 140 ± 6.47
- number of bacterial revertant colonies (S. typhimurium TA97; LP4C 2000 μg/plate, TA97, −S9, mean ± SD): 120 ± 8.53
- number of bacterial revertant colonies (S. typhimurium TA97; LP4C 5000 μg/plate, TA97, +S9, mean ± SD): 141 ± 7.65
- number of bacterial revertant colonies (S. typhimurium TA97; LP4C 5000 μg/plate, TA97, −S9, mean ± SD): 112 ± 9.83
- number of bacterial revertant colonies (S. typhimurium TA98; LP4C 50 μg/plate, TA98, +S9, mean ± SD): 32 ± 3.6
- number of bacterial revertant colonies (S. typhimurium TA98; LP4C 50 μg/plate, TA98, −S9, mean ± SD): 26 ± 2.2
- number of bacterial revertant colonies (S. typhimurium TA98; LP4C 200 μg/plate, TA98, +S9, mean ± SD): 33 ± 4.1
- number of bacterial revertant colonies (S. typhimurium TA98; LP4C 200 μg/plate, TA98, −S9, mean ± SD): 26 ± 4.8
- number of bacterial revertant colonies (S. typhimurium TA98; LP4C 1000 μg/plate, TA98, +S9, mean ± SD): 32 ± 4.7
- number of bacterial revertant colonies (S. typhimurium TA98; LP4C 1000 μg/plate, TA98, −S9, mean ± SD): 25 ± 5.4
- number of bacterial revertant colonies (S. typhimurium TA98; LP4C 2000 μg/plate, TA98, +S9, mean ± SD): 32 ± 5.8
- number of bacterial revertant colonies (S. typhimurium TA98; LP4C 2000 μg/plate, TA98, −S9, mean ± SD): 26 ± 6.7
- number of bacterial revertant colonies (S. typhimurium TA98; LP4C 5000 μg/plate, TA98, +S9, mean ± SD): 31 ± 5.2
- number of bacterial revertant colonies (S. typhimurium TA98; LP4C 5000 μg/plate, TA98, −S9, mean ± SD): 24 ± 3.5
- time during which blood concentration increased after administration ([8]; intragastric 10 mg/kg): ≤ 4 h
- bioavailability ([8]; intragastric 10 mg/kg vs intravenous 5 mg/kg): 46.35%
- plasma half-life ([8]; intragastric 10 mg/kg): 11 ± 1.26 h
- time during which serum concentration declined rapidly ([8]; intravenous 5 mg/kg): 10 to 60 min
- plasma half-life ([8]; intravenous 5 mg/kg): 14 ± 3.05 h
